Data set [1] has as its system monoamine oxidase. Put plainly: PET in baboons, double injection with intervening high dose of unlabeled compound. Type of data set: in vivo. The conditions noted are these: baboon pretreated with L-deprenyl, some brain regions.
A short description of data set [2]: Integrated plasma activity for the 30-minute period after tracer injection. The settings on record: 30-minute period after injection. Type of data set: in vivo, human. The text has this: Integrated plasma activity
for the 30-minute time period after injection is also presented.

In data set [3] the target is T1, MAO A (Mus musculus, UniProt Q64133).
T1 sequence (Q64133 1-526): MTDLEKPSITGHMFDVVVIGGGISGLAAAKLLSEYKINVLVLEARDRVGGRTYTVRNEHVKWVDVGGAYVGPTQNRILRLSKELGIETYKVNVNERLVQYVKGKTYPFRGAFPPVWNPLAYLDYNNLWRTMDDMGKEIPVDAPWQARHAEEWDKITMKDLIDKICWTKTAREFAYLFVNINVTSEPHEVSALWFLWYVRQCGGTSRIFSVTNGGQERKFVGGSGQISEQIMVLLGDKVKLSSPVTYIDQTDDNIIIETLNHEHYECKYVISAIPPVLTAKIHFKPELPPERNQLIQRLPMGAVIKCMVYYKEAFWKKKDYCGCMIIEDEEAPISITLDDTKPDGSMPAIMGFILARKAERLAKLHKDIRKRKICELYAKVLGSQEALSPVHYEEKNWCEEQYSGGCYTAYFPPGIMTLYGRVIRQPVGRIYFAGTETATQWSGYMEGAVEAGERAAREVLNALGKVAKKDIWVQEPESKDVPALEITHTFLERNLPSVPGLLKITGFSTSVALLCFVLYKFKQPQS
The settings on record: for Effect of cross pretreatment on tracer distribution: mice pretreated with unlabeled L-deprenyl 10 mg/kg i.p. one hour before tracer. As for the experimental part:
Organs were rapidly removed, blotted free of blood, placed in preweighed counting vials, and counted, along with injection standards, in a sodium iodide well counter.
For the determination of protein binding, freshly excised brains were minced in preweighed centrifuge tubes containing 2 ml 0.4% HClO4 […], weighed, counted, diluted with 1 ml HClO4 and 1 ml methanol, and homogenized by ultrasonication. After centrifugation and decantation, the pellets were resuspended in 3 ml methanol, sonicated, and recentrifuged. The combined supernatants and pellet were counted in a sodium iodide well counter. […] Because of the short half-life of C-11, corrections for the decay of the isotope were calculated to a standard time (end of cyclotron bombardment) for all data.
For pretreatment experiments, mice were given intraperitoneal injections of unlabeled clorgyline or L-deprenyl (10 mg/kg) one hour before the administration of the [^11 C]-tracer.

Setting [4] is: study 5, subject receiving phenelzine plus amphetamine.

Experimental findings from US4913891A, “Positron emitter labeled enzyme inhibitors” (The United States of America as represented by the United …, priority 1987, dated 1990) are described below.

Read-outs that look alike come from different tables or passages of the source. Some results are limits rather than exact numbers.

Regarding `C#CCN([11CH3])[C@H](C)Cc1ccccc1` [[^11 C]-L-deprenyl], in data set [1], the “Reduction of brain radioactivity due to tracer after pretreatment” value is not above 80%. For the same compound, the Integrated plasma activity came to 1818 nCi ml min in data set [2] (study 1, normal volunteer); 2295 nCi ml min in data set [2] (study 2, normal volunteer); 1018 nCi ml min in data set [2] (study 3, normal volunteer); 1618 nCi ml min in data set [2] (study 4, normal volunteer); 2776 nCi ml min in data set [2] (setting [4]).

Turning to `C#CCN([11CH3])CCCOc1ccc(Cl)cc1Cl` [[^11 C]clorgyline], the Integrated plasma activity in data set [2] (study 1, normal volunteer) stood at 2329 nCi ml min; in data set [2] (study 2, normal volunteer), 3206 nCi ml min; in data set [2] (study 3, normal volunteer), 3260 nCi ml min; in data set [2] (study 4, normal volunteer) it was 3611 nCi ml min; in data set [2] (setting [4]), 3965 nCi ml min. Besides, the “Effect of cross pretreatment on tracer distribution” value in data set [3] is on record as “did not significantly alter from control”; in data set [3] (listed as [^11 C]Clorgyline), “no effect”. Further, the “Brain uptake compared with the other tracer” value in data set [3] (mouse brain, control and pretreated mice) was “slight but consistently higher uptake than L-deprenyl”.
